According to ChEMBL document CHEMBL3885881, “DrugMatrix”:

Organism: Rattus norvegicus
Assay: DrugMatrix - Regimen: Daily Repeat
Assay type: toxicity, organism-based, Sprague-Dawley
Design: regimen Daily Repeat, gender Male, age 6-8 weeks
Settings: in vivo, po, route oral GAVAGE, vehicle .5 % CMC; for ABSOLUTE BASOPHIL / ABSOLUTE EOSINOPHIL / ABSOLUTE LYMPHOCYTE / ABSOLUTE MONOCYTE / ABSOLUTE SEGMENTED NEUTROPHIL / BASOPHIL / EOSINOPHIL / ERYTHROCYTE COUNT / HEMATOCRIT / HEMOGLOBIN / LEUKOCYTE COUNT / LYMPHOCYTE / MEAN CORPUSCULAR HEMOGLOBIN / MEAN CORPUSCULAR HEMOGLOBIN CONCENTRATION / MEAN CORPUSCULAR VOLUME / MONOCYTE / NEUTROPHIL / NUCLEATED RED BLOOD CELLS / PLATELET COUNT: tissue Blood; for ALANINE AMINOTRANSFERASE / ALBUMIN / ALKALINE PHOSPHATASE / ASPARTATE AMINOTRANSFERASE / BLOOD UREA NITROGEN / CARBON DIOXIDE / CHLORIDE / CHOLESTEROL / CREATINE PHOSPHOKINASE / CREATININE / GLUCOSE / LACTATE DEHYDROGENASE / LIPASE / PHOSPHORUS / POTASSIUM / SODIUM / TOTAL BILIRUBIN / TOTAL PROTEIN / URIC ACID: tissue Plasma
[1] = 100 mg/kg, 72 h, dose level Low, time 3 day
[2] = 100 mg/kg, 120 h, dose level Low, time 5 day
[3] = 1000 mg/kg, 72 h, dose level High, time 3 day
[4] = 1000 mg/kg, 120 h, dose level High, time 5 day

With CC1CN(c2cc3c(cc2F)c(=O)c(C(=O)O)cn3-c2ccc(F)cc2F)CCN1 (configuration not stated) [TEMAFLOXACIN] the “ABSOLUTE BASOPHIL” value [1] was 0 CELLS/uL, the “ABSOLUTE EOSINOPHIL” value [1] was 0 CELLS/uL and the “ABSOLUTE LYMPHOCYTE” value [1] was 10703 CELLS/uL. For the same compound, the “ABSOLUTE MONOCYTE” value [1] was 236.33 CELLS/uL, the “ABSOLUTE SEGMENTED NEUTROPHIL” value [1] was 1027.33 CELLS/uL and the BASOPHIL [1] was 0%. For the same compound, the EOSINOPHIL [1] was 0%, the “ERYTHROCYTE COUNT” value [1] was 5.1 x10E6/uL and the HEMATOCRIT [1] was 32.03%. The HEMOGLOBIN [1] was 12.13 G/DL, the “LEUKOCYTE COUNT” value [1] was 11.97 x10E3/uL and the LYMPHOCYTE [1] was 88.33%. The “MEAN CORPUSCULAR HEMOGLOBIN” value [1] was 23.83 pg, the “MEAN CORPUSCULAR HEMOGLOBIN CONCENTRATION” value [1] was 37.93 G/DL and the “MEAN CORPUSCULAR VOLUME” value [1] was 62.83 fL. The MONOCYTE [1] was 2.33%, the NEUTROPHIL [1] was 9.33% and the “NUCLEATED RED BLOOD CELLS” value [1] was 0 /100WBC. For the same compound, the “PLATELET COUNT” value [1] was 1089.33 x10E3/uL, the “ALANINE AMINOTRANSFERASE” value [1] was 64.67 u/L and the ALBUMIN [1] was 4.07 G/DL. The “ALKALINE PHOSPHATASE” value [1] was 401.33 u/L, the “ASPARTATE AMINOTRANSFERASE” value [1] was 92.33 u/L and the “BLOOD UREA NITROGEN” value [1] was 15.67 mg/dL. The “CARBON DIOXIDE” value [1] was 35 mmol/L, the CHLORIDE [1] was 98.67 MEQ/L and the CHOLESTEROL [1] was 91 mg/dL. The “CREATINE PHOSPHOKINASE” value [1] was 525.67 u/L, the CREATININE [1] was 0.24 mg/dL and the GLUCOSE [1] was 143 mg/dL. For the same compound, the “LACTATE DEHYDROGENASE” value [1] was 134.67 u/L, the LIPASE [1] was 9 u/L and the PHOSPHORUS [1] was 12.2 mg/dL. The POTASSIUM [1] was 5.94 MEQ/L, the SODIUM [1] was 143.63 MEQ/L and the “TOTAL BILIRUBIN” value [1] was 0.23 mg/dL. For the same compound, the “TOTAL PROTEIN” value [1] was 6.3 G/DL, the “URIC ACID” value [1] was 0.53 mg/dL and the “ABSOLUTE BASOPHIL” value [2] was 0 CELLS/uL. For the same compound, the “ABSOLUTE EOSINOPHIL” value [2] was 33 CELLS/uL, the “ABSOLUTE LYMPHOCYTE” value [2] was 9070.33 CELLS/uL and the “ABSOLUTE MONOCYTE” value [2] was 218.67 CELLS/uL. The “ABSOLUTE SEGMENTED NEUTROPHIL” value [2] was 878 CELLS/uL, the BASOPHIL [2] was 0% and the EOSINOPHIL [2] was 0.33%. The “ERYTHROCYTE COUNT” value [2] was 5.56 x10E6/uL, the HEMATOCRIT [2] was 33.53% and the HEMOGLOBIN [2] was 12.97 G/DL. For the same compound, the “LEUKOCYTE COUNT” value [2] was 10.2 x10E3/uL, the LYMPHOCYTE [2] was 88.67% and the “MEAN CORPUSCULAR HEMOGLOBIN” value [2] was 23.37 pg. The “MEAN CORPUSCULAR HEMOGLOBIN CONCENTRATION” value [2] was 38.7 G/DL, the “MEAN CORPUSCULAR VOLUME” value [2] was 60.37 fL and the MONOCYTE [2] was 2%. The NEUTROPHIL [2] was 9%, the “NUCLEATED RED BLOOD CELLS” value [2] was 0 /100WBC and the “PLATELET COUNT” value [2] was 1110.67 x10E3/uL. For the same compound, the “ALANINE AMINOTRANSFERASE” value [2] was 48.67 u/L, the ALBUMIN [2] was 4.43 G/DL and the “ALKALINE PHOSPHATASE” value [2] was 449.67 u/L. The “ASPARTATE AMINOTRANSFERASE” value [2] was 74.33 u/L, the “BLOOD UREA NITROGEN” value [2] was 15.33 mg/dL and the “CARBON DIOXIDE” value [2] was 37 mmol/L. The CHLORIDE [2] was 98 MEQ/L, the CHOLESTEROL [2] was 89.67 mg/dL and the “CREATINE PHOSPHOKINASE” value [2] was 298.67 u/L. The CREATININE [2] was 0.34 mg/dL, the GLUCOSE [2] was 138.67 mg/dL and the “LACTATE DEHYDROGENASE” value [2] was 126 u/L. The LIPASE [2] was 7.67 u/L, the PHOSPHORUS [2] was 12.27 mg/dL and the POTASSIUM [2] was 5.95 MEQ/L. The SODIUM [2] was 144.33 MEQ/L, the “TOTAL BILIRUBIN” value [2] was 0.23 mg/dL and the “TOTAL PROTEIN” value [2] was 6.37 G/DL. For the same compound, the “URIC ACID” value [2] was 0.8 mg/dL, the “ABSOLUTE BASOPHIL” value [3] was 0 CELLS/uL and the “ABSOLUTE EOSINOPHIL” value [3] was 0 CELLS/uL. The “ABSOLUTE LYMPHOCYTE” value [3] was 8968.67 CELLS/uL, the “ABSOLUTE MONOCYTE” value [3] was 91.33 CELLS/uL and the “ABSOLUTE SEGMENTED NEUTROPHIL” value [3] was 740 CELLS/uL. The BASOPHIL [3] was 0%, the EOSINOPHIL [3] was 0% and the “ERYTHROCYTE COUNT” value [3] was 5.3 x10E6/uL. The HEMATOCRIT [3] was 32.17%, the HEMOGLOBIN [3] was 12.37 G/DL and the “LEUKOCYTE COUNT” value [3] was 9.8 x10E3/uL. The LYMPHOCYTE [3] was 91.33%, the “MEAN CORPUSCULAR HEMOGLOBIN” value [3] was 23.43 pg and the “MEAN CORPUSCULAR HEMOGLOBIN CONCENTRATION” value [3] was 38.47 G/DL. The “MEAN CORPUSCULAR VOLUME” value [3] was 60.8 fL, the MONOCYTE [3] was 1% and the NEUTROPHIL [3] was 7.67%. The “NUCLEATED RED BLOOD CELLS” value [3] was 0 /100WBC, the “PLATELET COUNT” value [3] was 1214 x10E3/uL and the “ALANINE AMINOTRANSFERASE” value [3] was 59 u/L. The ALBUMIN [3] was 3.67 G/DL, the “ALKALINE PHOSPHATASE” value [3] was 384 u/L and the “ASPARTATE AMINOTRANSFERASE” value [3] was 87 u/L. The “BLOOD UREA NITROGEN” value [3] was 13 mg/dL, the “CARBON DIOXIDE” value [3] was 35.33 mmol/L and the CHLORIDE [3] was 99 MEQ/L. The CHOLESTEROL [3] was 84.33 mg/dL, the “CREATINE PHOSPHOKINASE” value [3] was 684.67 u/L and the CREATININE [3] was 0.26 mg/dL. The GLUCOSE [3] was 138.33 mg/dL, the “LACTATE DEHYDROGENASE” value [3] was 131 u/L and the LIPASE [3] was 9 u/L. It also gave a PHOSPHORUS [3] of 11.53 mg/dL, a POTASSIUM [3] of 5.74 MEQ/L and an SODIUM [3] of 143.93 MEQ/L. The “TOTAL BILIRUBIN” value [3] was 0.2 mg/dL, the “TOTAL PROTEIN” value [3] was 5.97 G/DL and the “URIC ACID” value [3] was 0.37 mg/dL. For the same compound, the “ABSOLUTE BASOPHIL” value [4] was 0 CELLS/uL, the “ABSOLUTE EOSINOPHIL” value [4] was 32 CELLS/uL and the “ABSOLUTE LYMPHOCYTE” value [4] was 12898.67 CELLS/uL. For the same compound, the “ABSOLUTE MONOCYTE” value [4] was 145 CELLS/uL, the “ABSOLUTE SEGMENTED NEUTROPHIL” value [4] was 424.33 CELLS/uL and the BASOPHIL [4] was 0%. For the same compound, the EOSINOPHIL [4] was 0.33%, the “ERYTHROCYTE COUNT” value [4] was 5.35 x10E6/uL and the HEMATOCRIT [4] was 31.83%. The HEMOGLOBIN [4] was 12.7 G/DL, the “LEUKOCYTE COUNT” value [4] was 13.5 x10E3/uL and the LYMPHOCYTE [4] was 95.33%. The “MEAN CORPUSCULAR HEMOGLOBIN” value [4] was 23.77 pg, the “MEAN CORPUSCULAR HEMOGLOBIN CONCENTRATION” value [4] was 39.9 G/DL and the “MEAN CORPUSCULAR VOLUME” value [4] was 59.53 fL. For the same compound, the MONOCYTE [4] was 1%, the NEUTROPHIL [4] was 3.33% and the “NUCLEATED RED BLOOD CELLS” value [4] was 0 /100WBC. The “PLATELET COUNT” value [4] was 1130.67 x10E3/uL, the “ALANINE AMINOTRANSFERASE” value [4] was 52.33 u/L and the ALBUMIN [4] was 3.8 G/DL. The “ALKALINE PHOSPHATASE” value [4] was 253 u/L, the “ASPARTATE AMINOTRANSFERASE” value [4] was 80.33 u/L and the “BLOOD UREA NITROGEN” value [4] was 13.67 mg/dL. For the same compound, the “CARBON DIOXIDE” value [4] was 33.33 mmol/L, the CHLORIDE [4] was 100.33 MEQ/L and the CHOLESTEROL [4] was 76.67 mg/dL. The “CREATINE PHOSPHOKINASE” value [4] was 375.67 u/L, the CREATININE [4] was 0.32 mg/dL and the GLUCOSE [4] was 145 mg/dL. For the same compound, the “LACTATE DEHYDROGENASE” value [4] was 188.33 u/L, the LIPASE [4] was 8.33 u/L and the PHOSPHORUS [4] was 11.47 mg/dL. For the same compound, the POTASSIUM [4] was 5.93 MEQ/L, the SODIUM [4] was 145.13 MEQ/L and the “TOTAL BILIRUBIN” value [4] was 0.2 mg/dL. The “TOTAL PROTEIN” value [4] was 5.77 G/DL and the “URIC ACID” value [4] was 0.83 mg/dL.
